Measurements: patent US20110144049A1, “Treating Cardiac Arrhythmias, Heart Failure, Peripheral Artery Disease and Stroke with Cyclopentyl-Triazolo-Pyrimidine or Derivative Thereof” (priority 2009, published 2011)

Key:
randomized patients = experiment: Listed Causes of Death from Efficacy Data Set (by randomized treatment); assay type: in vivo; details: Ticagrelor 90 mg bd N = 9333; Clopidcgrel 75 mg cd N = 9291
Text: Causes of death were similar between treatment groups. The most common cause of death was myocardial infarction occurring in about 1% of randomized patients. Sudden death, heart failure, other vascular events and stroke were among the more common causes of death.

[1] = tested on: individuals undergoing coronary stent implantation for therapy of Acute Coronary Syndrome (ASC); experiment: large randomized study, primary end point (death from vascular causes, MI or stroke); assay type: in vivo

Compound: CCCSc1nc(N[C@@H]2C[C@H]2c2ccc(F)c(F)c2)c2nnn([C@@H]3C[C@H](OCCO)[C@@H](O)[C@H]3O)c2n1 [Ticagrelor, (1S,2S,3R,5S)-3-[7-[(1R,2S)-2-(3,4-Difluorophenyl)cyclopropylamino]-5-(propylthio)-3H-[1,2,3]triazolo[4,5-d]pyrimidin-3-yl]-5-(2-hydroxyethoxy)cyclopentane-1,2-diol]
- Cause of death: Aortic dissection, number (randomized patients): 1
- Cause of death: Aortic dissection, percent (randomized patients): (0.0%)
- Cause of death: Arterial embolism, number (randomized patients): 0
- Cause of death: Arterial embolism, percent (randomized patients): (0.0%)
- Cause of death: Cancer, number (randomized patients): 14
- Cause of death: Cancer, percent (randomized patients): (0.2%)
- Cause of death: Cardiac arrhythmia, number (randomized patients): 20
- Cause of death: Cardiac arrhythmia, percent (randomized patients): (0.2%)
- Cause of death: Death from bleeding (not related to trauma), number (randomized patients): 13
- Cause of death: Death from bleeding (not related to trauma), percent (randomized patients): (0.1%)
- Cause of death: Endocarditis, number (randomized patients): 0
- Cause of death: Endocarditis, percent (randomized patients): (0.0%)
- Cause of death: Heart failure, number (randomized patients): 51
- Cause of death: Heart failure, percent (randomized patients): (0.5%)
- Cause of death: Liver failure, number (randomized patients): 0
- Cause of death: Liver failure, percent (randomized patients): (0.0%)
- Cause of death: Multiorgan failure, number (randomized patients): 9
- Cause of death: Multiorgan failure, percent (randomized patients): (0.1%)
- Cause of death: Myocardial infarction, number (randomized patients): 89
- Cause of death: Myocardial infarction, percent (randomized patients): (1.0%)
- Cause of death: Other coronary artery disease, number (randomized patients): 4
- Cause of death: Other coronary artery disease, percent (randomized patients): (0.0%)
- Cause of death: Other non-vascular cause, number (randomized patients): 8
- Cause of death: Other non-vascular cause, percent (randomized patients): (0.1%)
- Cause of death: Other vascular cause, number (randomized patients): 44
- Cause of death: Other vascular cause, percent (randomized patients): (0.5%)
- Cause of death: Pneumonia, number (randomized patients): 10
- Cause of death: Pneumonia, percent (randomized patients): (0.1%)
- Cause of death: Pulmonary embolism, number (randomized patients): 3
- Cause of death: Pulmonary embolism, percent (randomized patients): (0.0%)
- Cause of death: Renal failure, number (randomized patients): 2
- Cause of death: Renal failure, percent (randomized patients): (0.0%)
- Cause of death: Respiratory failure, number (randomized patients): 13
- Cause of death: Respiratory failure, percent (randomized patients): (0.1%)
- Cause of death: Ruptured aortic aneurysm, number (randomized patients): 1
- Cause of death: Ruptured aortic aneurysm, percent (randomized patients): (0.0%)
- Cause of death: Sepsis, number (randomized patients): 7
- Cause of death: Sepsis, percent (randomized patients): (0.1%)
- Cause of death: Stroke, number (randomized patients): 20
- Cause of death: Stroke, percent (randomized patients): (0.2%)
- Cause of death: Sudden death, number (randomized patients): 60
- Cause of death: Sudden death, percent (randomized patients): (0.6%)
- Cause of death: Suicida, number (randomized patients): 1
- Cause of death: Suicida, percent (randomized patients): (0.0%)
- Cause of death: Trauma, number (randomized patients): 3
- Cause of death: Trauma, percent (randomized patients): (0.0%)
- Cause of death: Unknown, number (randomized patients): 39
- Cause of death: Unknown, percent (randomized patients): (0.4%)
- Cause of death: Unstable angina, number (randomized patients): 7
- Cause of death: Unstable angina, percent (randomized patients): (0.1%)
- Cause of death: Valvular disease, number (randomized patients): 0
- Cause of death: Valvular disease, percent (randomized patients): (0.0%)
- Cause of death: Vascular death, sub-classification missing, number (randomized patients): 0
- Cause of death: Vascular death, sub-classification missing, percent (randomized patients): (0.0%)

Compound: COC(=O)[C@H](c1ccccc1Cl)N1CCc2sccc2C1 [clopidogrel]
- primary end point: first event of death from vascular causes, myocardial infarction (MI) or stroke, occurred in % of patients [1]: 11.7%
- Cause of death: Aortic dissection, number (randomized patients): 2
- Cause of death: Aortic dissection, percent (randomized patients): (0.0%)
- Cause of death: Arterial embolism, number (randomized patients): 2
- Cause of death: Arterial embolism, percent (randomized patients): (0.0%)
- Cause of death: Cancer, number (randomized patients): 17
- Cause of death: Cancer, percent (randomized patients): (0.2%)
- Cause of death: Cardiac arrhythmia, number (randomized patients): 29
- Cause of death: Cardiac arrhythmia, percent (randomized patients): (0.3%)
- Cause of death: Death from bleeding (not related to trauma), number (randomized patients): 15
- Cause of death: Death from bleeding (not related to trauma), percent (randomized patients): (0.2%)
- Cause of death: Endocarditis, number (randomized patients): 0
- Cause of death: Endocarditis, percent (randomized patients): (0.0%)
- Cause of death: Heart failure, number (randomized patients): 62
- Cause of death: Heart failure, percent (randomized patients): (0.7%)
- Cause of death: Liver failure, number (randomized patients): 1
- Cause of death: Liver failure, percent (randomized patients): (0.0%)
- Cause of death: Multiorgan failure, number (randomized patients): 14
- Cause of death: Multiorgan failure, percent (randomized patients): (0.2%)
- Cause of death: Myocardial infarction, number (randomized patients): 89
- Cause of death: Myocardial infarction, percent (randomized patients): (0.9%)
- Cause of death: Other coronary artery disease, number (randomized patients): 4
- Cause of death: Other coronary artery disease, percent (randomized patients): (0.0%)
- Cause of death: Other non-vascular cause, number (randomized patients): 11
- Cause of death: Other non-vascular cause, percent (randomized patients): (0.1%)
- Cause of death: Other vascular cause, number (randomized patients): 55
- Cause of death: Other vascular cause, percent (randomized patients): (0.6%)
- Cause of death: Pneumonia, number (randomized patients): 8
- Cause of death: Pneumonia, percent (randomized patients): (0.1%)
- Cause of death: Pulmonary embolism, number (randomized patients): 8
- Cause of death: Pulmonary embolism, percent (randomized patients): (0.1%)
- Cause of death: Renal failure, number (randomized patients): 5
- Cause of death: Renal failure, percent (randomized patients): (0.1%)
- Cause of death: Respiratory failure, number (randomized patients): 12
- Cause of death: Respiratory failure, percent (randomized patients): (0.1%)
- Cause of death: Ruptured aortic aneurysm, number (randomized patients): 0
- Cause of death: Ruptured aortic aneurysm, percent (randomized patients): (0.0%)
- Cause of death: Sepsis, number (randomized patients): 23
- Cause of death: Sepsis, percent (randomized patients): (0.2%)
- Cause of death: Stroke, number (randomized patients): 18
- Cause of death: Stroke, percent (randomized patients): (0.2%)
- Cause of death: Sudden death, number (randomized patients): 77
- Cause of death: Sudden death, percent (randomized patients): (0.8%)
- Cause of death: Suicida, number (randomized patients): 1
- Cause of death: Suicida, percent (randomized patients): (0.0%)
- Cause of death: Trauma, number (randomized patients): 1
- Cause of death: Trauma, percent (randomized patients): (0.0%)
- Cause of death: Unknown, number (randomized patients): 58
- Cause of death: Unknown, percent (randomized patients): (0.6%)
- Cause of death: Unstable angina, number (randomized patients): 8
- Cause of death: Unstable angina, percent (randomized patients): (0.1%)
- Cause of death: Valvular disease, number (randomized patients): 1
- Cause of death: Valvular disease, percent (randomized patients): (0.0%)
- Cause of death: Vascular death, sub-classification missing, number (randomized patients): 1
- Cause of death: Vascular death, sub-classification missing, percent (randomized patients): (0.0%)
